Laboratory results reported in US5368775A, “Corrosion control composition and method for boiler/condensate steam system” (priority 1993, dated 1994).
Where two headings read alike, the source gives them in different places.

Key:
[1] = cited from earlier work
[2] = Low pressure (175 psig) package boiler study of DEAE and DMAPA (Table IV); conditions: for Feedwater concentration / Steam concentration: 175 psig boiler
Experimental: A study of the effects of a relatively low pressure boiler on DEAE and DMAPA was undertaken. The study was conducted in a 175 psig package boiler. The boiler was operated at 41 cycles with no condensate return so that the amine present in the steam could only come from the feedwater and not from the return of condensate. DEAE and DMAPA were-fed simultaneously at 50 ppm to the feedwater. The boiler was operated overnight to allow the system to equilibrate. […] The concentrations were determined by gas chromatography.

[3] = Table I properties of amines: basicity, distribution ratios, flash point; format: physicochemical
From the text: The preferred relatively high molecular weight amine of the present invention is dimethylaminopropylamine (DMAPA) or N,N-dimethyl-1,3-propanediamine. […] When DMAPA is subjected to common boiler temperatures and pressures of from 100, and preferably over 200, to 1500 psig, the DMAPA will partially decompose. The partial decomposition of DMAPA forms DMA and TMA.

[4] = Lab scale test boiler, DMAPA feed, formation of DMA and TMA in feedwater (GC), 1,450 psig; format: physicochemical
[5] = as above; format: physicochemical; conditions: for Feedwater composition: feedwater initially 200 ppm DMAPA; for Feedwater conductivity / Feedwater pH: DMAPA feed
From the text: The following lab scale experiment verified the formation of DMA and TMA.
A research scale, electrically heated test boiler was charged with nitrogen sparged (a mechanical deaeration), demineralized water. The water was supplied by high pressure pump to a D-configuration stainless steel boiler having an internal volume of approximately 5 liters. Two 4000 watt Incoloy 800 resistance heaters produced a steam rate of approximately 17 lbs/hr at a steam pressure of 1,450 psig (correspond to a temperature of 593° F.).
Cycles of concentration were held at approximately 15 by controlling boiler blowdown rate to 1.1 lbs/hr. The saturated steam produced was routed back into the feed tank and mixed with the original feedwater. This follows common industry practice where for economy the maximum amount of condensate is returned to the boiler as feedwater. The feedwater initially contained 200 ppm of DMAPA (Aldrich 99%) and 1.4 ppm hydrazine for deaeration. The feedwater (to which the condensed steam was recycled) was analyzed by gas chromatography and DMA and TMA were quantitated by comparison to external standards.

[6] = Research boiler decomposition, 200 to 600 psig (FIG. 1); format: physicochemical; conditions: virtually any pressure, especially above about 200 psig
From the text: Additional testing in a research boiler was undertaken at pressures of from 200 to 600 psig in 100 psig steps. The high molecular weight amines tested included DMAPA, DEAE and MOPA. The boiler system was operated at 100% condensate return at 15 cycles. Feed tank, steam and blowdown samples were taken at the end of each run and analyzed by gas chromatograph (GC).
A condensate modeling system was used to simulate the boiler runs and estimate. The theoretical steam concentration possible if no amine decomposition occurred. Using the theoretical concentration and the analytical value obtained from GC analysis, the percent decomposition was calculated and the results summarized in FIG. 1.

[7] = Decomposition of feed amine at boiler conditions from steam concentration (Table III)
Experimental: The effects of common boiler/condensate temperature and pressure on relatively high molecular weight amine was studied. The relatively high molecular weight amines methoxypropylamine (MOPA) and DMAPA were exposed to boiler condition and the steam concentrations of the feed amines measured. From this information the percent decomposition was calculated.

[8] = Additional testing of decomposition products of high molecular weight amines; format: physicochemical; conditions: for formation from DMAPA: additional testing with DMAPA
[9] = cited from earlier work; remark: listed apart in the source

## CCNCC [DEA, diethylamine]
[1]; at 1000 psig
  Distribution ratio: 28

## CCN(CC)CCO [DEAE, diethylaminoethanol]
[2]; lower saturation pressures of this test (175 psig boiler)
  hydrothermal stability: hydrothermally stable

## CNC [DMA, dimethylamine]
[1]
  pKa: 10.77
[1]; pressure not stated
  Distribution ratio (DR): 2-5
[3]
  Flash Pt.: 60 °F
[3]; 100 psig
  Distribution ratio: 2.4
[3]; 200 psig
  Distribution ratio: 2.1
[3]; 600 psig
  Distribution ratio: 3.3
[3]; single or first pKa
  Basicity (pKa): 10.8
[4]
  volatility relative to DMAPA: significantly more volatile than DMAPA
[5]; 22 hrs., sample 12
  Feedwater composition: 5 ppm
[5]; 46 hrs., sample 13
  Feedwater composition: 11 ppm
[5]; 79 hrs., sample 14
  Feedwater composition: 20 ppm
[5]; 94 hrs., sample 15
  Feedwater composition: 25 ppm

## CN(C)CCCN [DMAPA, N,N-dimethyl-1,3-propanediamine]
[6]
  decomposition compared to MOPA: significantly higher than MOPA
[7]; 200 psig, feedwater 106 ppm
  Steam concentration: 98.4 ppm
[7]; 600 psig, feedwater 106 ppm
  Steam concentration: 78.8 ppm
[7]; 900 psig, feedwater 106 ppm
  Steam concentration: 68.7 ppm
[7]; 1450 psig, feedwater 106 ppm
  Steam concentration: 37.3 ppm
[3]
  Flash Pt.: 84 °F
[3]; 100 psig
  Distribution ratio: 1.1
[3]; 200 psig
  Distribution ratio: 1.9
[3]; 600 psig
  Distribution ratio: 2.0
[3]; second of two pKa values, read-out: Basicity (pKa), second value
  pKa: 8.2
[3]; single or first pKa, read-out: Basicity (pKa)
  pKa: 10
[2]; time 1
  Feedwater concentration: 44 ppm
  Steam concentration: 42 ppm
[2]; time 2
  Feedwater concentration: 44 ppm
  Steam concentration: 42 ppm
[2]; time 3
  Feedwater concentration: 45 ppm
  Steam concentration: 42 ppm
[2]; time 4
  Feedwater concentration: 44 ppm
  Steam concentration: 42 ppm
[2]; time 5
  Feedwater concentration: 46 ppm
  Steam concentration: 42 ppm
[2]; time 6
  Feedwater concentration: 44 ppm
  Steam concentration: 42 ppm
[2]; time 7
  Feedwater concentration: 38 ppm
  Steam concentration: 40 ppm
[5]; 22 to 94 hrs.
  concentration of DMA and TMA with time on DMAPA addition: steadily increasing concentration of DMA and TMA with time
[5]; 22 hrs.
  Feedwater conductivity: 160 uS
  Feedwater pH: 10.35
[5]; 46 hrs.
  Feedwater conductivity: 195 uS
  Feedwater pH: 10.40
[5]; 79 hrs.
  Feedwater conductivity: 200 uS
  Feedwater pH: 10.65
[5]; 94 hrs.
  Feedwater conductivity: 230 uS
  Feedwater pH: 10.35

## CN [MA, methylamine]
[8]
  formation from DMAPA: confirmed

## COCCCN [MOPA, methoxypropylamine]
[7]; 1500 psig
  stability at boiler conditions: essentially stable
[7]; 1500 psig, feedwater 61 ppm
  % Decomposition: 4.9%
  Steam concentration: 58 ppm
[7]; 2500 psig, feedwater 61 ppm
  % Decomposition: 24.6%
  Steam concentration: 46 ppm
[8]; temperature and pressure common to a typical boiler/condensate steam system
  decomposition at boiler conditions: do not decompose

## C1COCCN1 [Morpholine]
[9]; at atmospheric pressure
  Distribution ratio: 0.4

## CN(C)C [TMA, trimethylamine]
[1]; at boiler pressures from 100 to 1500 psig
  times more volatile than cyclohexylamine: 2-5 times
[3]
  Flash Pt.: 20 °F
[4]
  volatility relative to DMAPA: significantly more volatile than DMAPA
[5]; 22 hrs., sample 12
  Feedwater composition: 9 ppm
[5]; 46 hrs., sample 13
  Feedwater composition: 16 ppm
[5]; 79 hrs., sample 14
  Feedwater composition: 25 ppm
[5]; 94 hrs., sample 15
  Feedwater composition: 32 ppm

## N [ammonia]
[9]; at atmospheric pressure
  Distribution ratio: 10.0

## O=C=O [carbon dioxide]
[9]; depending upon temperature
  Distribution ratio: ≥ 100

## NC1CCCCC1 [cyclohexylamine]
[9]; at atmospheric pressure
  Distribution ratio: 4.0

## CC(O)CN(C)C (centres unmarked) [dimethylisopropanol amine]
[9]; at atmospheric pressure
  Distribution ratio: 1.7

## dimethylaminopropanol [DMAP]
[8]
  formation from DMAPA: confirmed
